Converted amounts (≈) assume the structure as drawn.
Experiments:
[1] = Reverse-phase HPLC retention time as estimate of lipophilicity; format: physicochemical; details: indicator of lipophilicity
Description: As mentioned before, albicidin 1 is a rather hydrophobic compound and improving its aqueous solubility is desirable. The lipophilicity of drug molecules is commonly characterized by the octanol/water partition coefficient (logP). An alternative approach relies on the correlation between lipophilicity and the retention time (Rt) on a reverse‐phase HPLC column.[31] This approach works well if structurally related compounds are compared as is the case for this SAR study. Rt was thus used to estimate the hydrophilicity of albicidin 1 and its derivatives 2–24 (Table 1).[32]

E. coli DNA gyrase = E. coli DNA gyrase (Escherichia coli, UniProt P0AES4); assay: E. coli gyrase DNA cleavage assay; format: biochemical; design: key to Gyrase inhibition strong+ / weak −: + strong inhibition; − weak inhibition in comparison to compound 16; details: qualitative DNA cleavage assay at 1 μM and 10 μM, in comparison to compound 16
Sequence of E. coli DNA gyrase (P0AES4 whole entry): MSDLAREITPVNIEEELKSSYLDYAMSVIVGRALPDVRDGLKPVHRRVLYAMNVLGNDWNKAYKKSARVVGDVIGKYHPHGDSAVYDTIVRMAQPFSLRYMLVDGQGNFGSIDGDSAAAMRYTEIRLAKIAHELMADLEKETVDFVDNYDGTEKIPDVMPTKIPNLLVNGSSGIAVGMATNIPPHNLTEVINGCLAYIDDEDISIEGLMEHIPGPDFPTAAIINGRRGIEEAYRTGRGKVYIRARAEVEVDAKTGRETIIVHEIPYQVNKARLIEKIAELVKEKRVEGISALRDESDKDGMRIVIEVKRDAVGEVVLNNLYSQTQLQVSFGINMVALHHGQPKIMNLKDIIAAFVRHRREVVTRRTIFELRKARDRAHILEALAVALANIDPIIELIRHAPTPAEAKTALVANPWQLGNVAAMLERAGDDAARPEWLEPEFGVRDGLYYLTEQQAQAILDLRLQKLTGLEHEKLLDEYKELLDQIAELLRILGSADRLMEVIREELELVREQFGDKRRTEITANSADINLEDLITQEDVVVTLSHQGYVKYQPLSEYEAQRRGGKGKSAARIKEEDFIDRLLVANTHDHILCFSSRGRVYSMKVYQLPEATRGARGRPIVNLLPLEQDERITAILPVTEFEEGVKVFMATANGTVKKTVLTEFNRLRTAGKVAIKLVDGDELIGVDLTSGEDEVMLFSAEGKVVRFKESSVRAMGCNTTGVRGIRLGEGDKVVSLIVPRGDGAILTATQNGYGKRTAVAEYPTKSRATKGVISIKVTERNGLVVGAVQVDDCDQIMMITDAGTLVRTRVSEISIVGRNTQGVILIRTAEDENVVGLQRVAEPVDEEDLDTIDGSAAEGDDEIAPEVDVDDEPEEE
Protocol: The target activity of the synthesized derivatives was investigated using a DNA cleavage assay with purified and enzymatically active E. coli DNA gyrase[8] (see SI). In this assay, albicidin‐stabilized complexes of gyrase and plasmid DNA are trapped, and subsequently denatured and deproteinated to reveal DNA linearized by gyrase. […] For the best performing compounds, which were able to fully stabilize the cleavage complex at a concentration of 1 μM, the concentrations at half‐maximum cleavage (CC50) were determined (Figure 3).
1.2 Escherichia coli Gyrase Cleavage Inhibition Assay
E. coli gyrase cleavage assays were executed by setting up a master mix including 0.25 µg relaxed plasmid (pBR322) in 35 mM Tris-HCl (pH 7.5), 24 mM KCl, 4 mM MgCl2, 2 mM dithithreitol (DTT), 1.8 mM spermidine, 1 mM ATP, 6.5% (wt/vol) glycerol and 0.1 mg/ml bovine serum albumin per reaction.
Of this stock solution, 13.2 µL was aliquoted for each reaction into 1.5 mL Eppendorf tubes and supplemented with 0.3 µL of the appropriate compound dilution or DMSO with a […] DMSO concentration of 2% per reaction. The reactions were started with 1.5 µL of 50 nM (pre-screening) or 40 nM (IC50 determinations) wt E. coli gyrase in dilution buffer (50 mM Tris-HCl (pH 7.5), 100 mM KCl, 2 mM DTT, 1 mM EDTA, and 50% (wt/vol) glycerol) for a […] volume of 15 µL. Reactions were incubated at 37°C for 30 minutes before addition of 1.5 µL 0.2% (wt/vol) SDS and 0.75 µL proteinase K (0.2 mg/mL) and further incubation at 37°C for 30 minutes to trap cleavage complexes. Reactions were stopped with 15 µL chloroform:isoamyl alcohol (24: 1 v/v) and 15 µL of STEB (40% (wt/vol) sucrose, […] Tris-Cl pH 8, 10 mM EDTA, 0.5 mg/mL bromophenol blue). After brief vortexing and centrifugation at 2,300g for 5 min, 15 µL of the aqueous phase was loaded onto 1% (wt/vol) agarose in TAE (Tris-acetate […] and EDTA […]) gels supplemented with 10 µg/mL ethidium bromide.
The gels were run at 85 V for 2 hours.
DNA was visualized (602/50, UV Trans, auto optimal exposure) with a ChemiDoc MP (Bio-Rad Laboratories Inc., equipped with ImageLab Touch Software v2.0.0.27) and the percentage of cleaved DNA relative to the total amount of DNA per lane was determined with ImageJ software.[2] IC50 curves were generated in GraphPad Prism (v10.0.0) using the non-linear regression curve fit variable slope with four parameters and least squares regression.

[2] = test system: Salmonella typhimurium TA100; assay: MIC determination (broth microdilution); format: cell-based; details: Salmonella enterica, read-out: MIC S. typh.
Protocol: (§1) After completing the syntheses, the antibacterial activity of A‐variations 4–24 was assessed by determination of MIC values against a basic set of gram‐negative and gram‐positive bacteria (Table 1). The monocyclic derivatives 4–8 featuring a cyano‐, trifluoromethyl‐, methoxy‐ and fluoro‐ substituent in para‐position were very active against the gram–negative E. coli and S. typhimurium strains with MIC values in the same range as 3rd Gen albicidin 3 or ciprofloxacin which is the gold standard for gyrase inhibitors. […] These findings are in agreement with previous studies showing good activities for cyano, trifluoromethyl, methoxy and fluoro substituents in the para‐position of different aromatic rings in the building block A.[12, 13] The activity of the monocyclic derivatives 4–8 against the gram‐positive strains B. subtilis and M. luteus were similar but slightly less pronounced compared to the lead structure 3.
(§2) 1.1 Determination of Minimal Inhibitory Concentrations (MIC)
(§3) Minimal inhibitory concentration (MIC) against selected bacterial strains values were determined according to the ninth edition of the Approved Standard M07-A9.[1] 20 μL of cryo stocks of bacterial strains were suspended in 20 mL LB medium (Lysogeny broth: 10 g/L peptone, 5 g/L yeast extract, 5 g/L NaCl). Following incubation overnight at 37°C, 200 rpm, the test inoculum was adjusted by 0.5 McFarland Standard in cation adjusted Mueller-Hinton broth (BBLTM Mueller-Hinton Broth II, Becton, Dickinson and Company, New Jersey, USA) to approximately 1x10^6 CFU mL-1. 95 μL of the bacterial inoculum were applied per well of a 96-well plate. Albicidin and albicidin derivatives 3−24 were dissolved in DMSO (100%) to an initial concentration of 2560 μg/mL and serially diluted in DMSO (100%). Initial solution and serial dilutions of Ciprofloxacin were prepared in 0.1 N HCL, respectively. 5 μL of each antibiotic dilution were added to the microdilution tray to reach albicidin concentrations of 128 μg/mL to 0.016 μg/mL per well. One row of each well plate served as a growth control without antibiotic substances and another row of the microdilution tray served as sterility control (only MHB II - media). The antimicrobial effect of the solvent (DMSO) was tested by adding 5 μL DMSO to several wells. Purity check and cell titer control were performed according to International S tandard M07-A9 on Mueller-Hinton II Agar (Mueller Hinton II Broth, 15 g/L agar-agar). Both microdilution trays and agar plates were incubated at 30−37°C for 16 h and subsequently analyzed for growth inhibition by naked eye. The following primary panel of microorganisms were purchased from German Collection of Microorganisms and Cell Cultures (DSMZ):
(§4) Escherichia coli DSM 1116
(§5) Micrococcus luteus DSM 1790
(§6) Mycobacterium phlei DSM 750
(§7) Salmonella typhimurium TA100 was kindly provided by Prof. Dr. Vera Meyer (Technische Universität Berlin). […]
(§8) was purchased as part of the single gene knockout library of E. coli K12 BW25113 (Keio collection) from Horizon Discovery group plc (Cambridge, UK).

E. coli DSM1116 = assay: MIC determination (broth microdilution); format: cell-based; details: Escherichia coli, DSM1116; read-out: MIC E. coli DSM1116
Protocol: as §1, §2, §3, §4, §5, §6, §7, §8

Bacillus subtilis DSM 10 = assay: MIC determination (broth microdilution); format: cell-based; details: DSM10, read-out: MIC B. sub.
Protocol: as §1, §2, §3, §4, §5, §6, §7, §8

[3] = test system: Mycobacterium phlei DSM 750; assay: MIC determination (broth microdilution); format: cell-based; details: Mycolicibacterium phlei, DSM750; read-out: MIC M. phlei
Protocol: as §1, §2, §3, §4, §5, §6, §7, §8

[4] = test system: Micrococcus luteus DSM 1790; assay: MIC determination (broth microdilution); format: cell-based; details: DSM1790, read-out: MIC M. luteus
Protocol: as §1, §2, §3, §4, §5, §6, §7, §8

E. coli BW25113 = assay: MIC determination (broth microdilution); format: cell-based; details: Escherichia coli, BW25113; read-out: MIC E. coli BW25113
Protocol: as §1, §2, §3, §4, §5, §6, §7, §8

E. coli = assay: MIC against E. coli in presence of 50 % human serum; format: cell-based; details: Escherichia coli; E. coli in presence of 50 % human serum; read-out: MICEc 50%HS

SMILES	Rt (retention time) [1] [min]	Gyrase inhibition strong+ / weak − (E. coli DNA gyrase)	MIC [2] [µg/mL]	MIC (E. coli DSM1116) [µg/mL]	MIC (Bacillus subtilis DSM 10) [µg/mL]	MIC [3] [µg/mL]	MIC [4] [µg/mL]	MIC (E. coli BW25113) [µg/mL]	MIC (E. coli) [µg/mL]
COc1c(NC(=O)c2ccc(NC(=O)c3ccc(NC(=O)[C@H](Cc4c[nH]nn4)NC(=O)c4ccc(NC(=O)c5ccc(C(F)(F)F)cc5)cc4)cn3)c(OC)c2O)ccc(C(=O)O)c1O [compound 5]	8.99	−	≤ 0.016	0.016 (≈ 0.0178 µM)	0.125 (≈ 0.139 µM)	1 (≈ 1.11 µM)	0.5 (≈ 0.557 µM)	0.063 (≈ 0.0702 µM)	4
COc1ccc(C(=O)Nc2ccc(C(=O)N[C@@H](Cc3c[nH]nn3)C(=O)Nc3ccc(C(=O)Nc4ccc(C(=O)Nc5ccc(C(=O)O)c(O)c5OC)c(O)c4OC)nc3)cc2)nc1 [compound 6]	8.29	+	≤ 0.016	0.031 (≈ 0.036 µM)	0.125 (≈ 0.145 µM)	2 (≈ 2.32 µM)	0.125 (≈ 0.145 µM)	≤ 0.016	2
COc1c(NC(=O)c2ccc(NC(=O)c3ccc(NC(=O)[C@H](Cc4c[nH]nn4)NC(=O)c4ccc(NC(=O)c5ccc6nccnc6c5)cc4)cn3)c(OC)c2O)ccc(C(=O)O)c1O [compound 15]	7.71	+		0.031 (≈ 0.0352 µM)	0.125 (≈ 0.142 µM)	2 (≈ 2.27 µM)	0.25 (≈ 0.284 µM)	0.031 (≈ 0.0352 µM)	

— paper PMC11979685, “Synthesis of Derivatives of the Antibiotic Albicidin: The N‐Terminal Fragment as Key to Control Potency and Resistance Mediated by the Binding Protein AlbA” (Chemistry (Weinheim an Der Bergstrasse, Germany), 2025)
